Data taken from US20230218589A1, “COMPOUND FOR PREVENTION OR TREATMENT OF A SKIN CANCER OR SKIN PRECANCER” (UNIQUEST PTY LTD, priority 2020, published 2023).
Like-named read-outs stand apart in the source and are kept apart here.

Legend:
[1] = system: human T cells; assay: Human T cell proliferation assay (PBMCs, anti-CD3, CellTiter-Glo); format: cell-based
Protocol: Cyclosporine A 1 mg/mL stock (CsA—Sigma) was dissolved in DMSO, Rapamycin 5 mg/mL stock (LC Labs) was dissolved in ethanol.
Under sterile conditions, a 96 well flat bottom plate with white opaque walls (Perkin Elmer) was coated with 10 μg per well of purified human anti-CD3 antibody (clone OKT-3; Biolegend) in a volume of 50 μL per well in sterile PBS. The plate was covered in parafilm and incubated overnight at 4° C. Just prior to addition of Peripheral Blood Mononuclear Cells (PBMCs), the antibody solution was removed and discarded using a multichannel pipette. Wells were washed by adding 200 μL sterile PBS to each well and incubating for 2 min. PBS wash solution was removed and discarded following incubation. The wash step was repeated once, for a total of two PBS washes.
20 mL of blood from a consenting healthy volunteer was collected into lithium heparin vacuette containers (Greiner Bio-One). Under sterile conditions, blood from each container was pooled into a single tube and mixed thoroughly with 20 mL FACS buffer (2% FBS in 1×PBS). 15 mL Ficoll-Paque (GE Healthcare) was added to two 50 mL Falcon tubes, before 20 mL of whole blood/FACS buffer mixture was carefully and slowly dispensed on top of the Ficoll layer. Tubes were centrifuged at 800 g for 20 min at room temperature with the brake off. After centrifugation, the resulting PBMC layer between the plasma and Ficoll layers was carefully removed and transferred to a new 50 mL Falcon tube. Tubes were topped up to 45 mL with FACS buffer, then centrifuged at 500 g for 15 min. Supernatant was carefully removed without disturbing cell pellet, then PBMCs from both tubes were pooled. 30 mL of pre-warmed complete RPMI media [RPMI 1640 (Gibco), 10% heat inactivated FBS (Gibco), 1× Penicillin/Streptomycin/L-Glutamine (Gibco), 100 μM 2-Mercaptoethanol (Sigma)] was added to PBMCs, before centrifugation at 500 g for 15 min at room temperature. Supernatant was removed carefully without disturbing cell pellet. PBMCs were resuspended in 1 mL complete RPMI media.
PBMCs were counted manually using a haemocytometer and cell concentration was adjusted to 1.5×10^6 cells/mL with complete RPMI media. 50 μL of cell suspension was added to appropriate wells of the 96 well flat bottom plate with white opaque walls pre-coated in human anti-CD3. The final number of cells per well was 7.5×10^4.
Cells were incubated in a humidified incubator at 37° C. with 5% CO2 for 1 hour before Compound 1 (or vehicle only) was diluted in complete RPMI medium and added to the appropriate wells at the concentration required. The final volume in all wells was 100 μL. Cells were incubated for 5 days in a humidified incubator at 37° C. with 5% CO2.
CellTiter-Glo Luminescent Cell Viability Assay (Promega) was performed to determine the level of metabolically active cells per well based on ATP quantification. CellTiter-Glo Buffer and lyophilised CellTiter-Glo Substrate were equilibrated to room temperature. CellTiter-Glo Substrate was reconstituted with 10 mL CellTiter-Glo Buffer and gently vortexed for 1 minute to create the CellTiter-Glo Reagent. The 96 well plate containing PBMCs was equilibrated to room temperature for 30 min. Once at room temperature, 100 μL of CellTiter-Glo Reagent was dispensed using a multichannel pipette into each well containing 100 μL cells and media. The plate was mixed for 2 min at room temperature on an orbital shaker to induce cell lysis. The plate was then incubated for 10 min at room temperature in the dark to stabilize the luminescence signal. Luminescence signal was recorded using a CLARIOstar Plus plate reader (BMG Labtech).
PBMCs were stimulated with human anti-CD3 antibody and T cells were allowed to proliferate at 37° C. with 5% CO2 in a humidified incubator for 5 days. Proliferation/viability was assessed via a CellTiter-Glo Luminescent Cell Viability Assay and luminescence was read using a CLARIOstar Plus plate reader. […]

[2] = cSCC tumour pharmacokinetics after intra-tumoural injection (LC/MS/MS); format: in vivo, mouse; details: for concentration at 1 h / concentration at 6 h / concentration at 18 h: K14-HPV38-E6/E7, mouse, in vivo
Protocol: Tumour processing: The whole tumour was removed from the mouse. The weight of the tumour was recorded and tumour was placed into an appropriate cryovial on dry ice then transferred to a −80° C. freezer. 3 tumours per time point were assessed.
Calibration standards and quality control samples were prepared by adding 2.5 μL of stock solutions of test compound of different concentrations into 25 μL of naive mouse blood or skin homogenates. Control samples were prepared by spiking 2.5 μL of water or acetonitrile into 25 μL of naïve mouse blood or skin homogenates. Tumour samples were homogenised in 1 mL of PBS then transferred into polypropylene Eppendorf tubes. 100 μL of 0.1 M zinc sulfate was added into the tubes, vortexed for 10 sec, and 250 μL of HPLC-grade acetonitrile containing internal standard (pimecrolimus) was added, vortexed for 2 min, and centrifuged for 3 min at 800×g. 20-40 μL of the supernatant was analysed by LCMS/MS. Instrument: Acquity UPLC, Waters. Column: Acquity BEH C18 100×2.1 mm, 1.7 micron; Mobile phase A: methanol; Mobile phase B: 5 mM ammonium acetate with 0.1% formic acid; Mobile phase gradient details: T=0 min (10% A, 90% B); T=0.01 min (10% A, 90% B); gradient to T=1.5 min (95% A, 5% B); T=3.2 min (95% A, 5% B). Flow rate: 0.3 mL/min, run time: 4.5 min; Ionisation mode: Electrospray ionisation (positive).

Row | Compound | rescue of T cell proliferation in the presence of rapamycin ([1]; 0.3 μM, 1 μM and 3 μM Compound 1 with 1 ng/mL rapamycin, 5 days) | rescue of T cell proliferation in the presence of cyclosporine A ([1]; 0.3 μM, 1 μM and 3 μM Compound 1 with 50 ng/mL cyclosporine A, 5 days) | rescue of T cell proliferation in the presence of tacrolimus ([1]; 1 μM and 3 μM Compound 1 with 0.6 ng/mL tacrolimus, 5 days) | T cell proliferation/viability with Compound 1 alone ([1]; no tacrolimus, 5 days) | concentration at 1 h ([2]; 1 h post final dose, SCC tumours, read-out: Average Concentration Compound 1 in tumour) | concentration at 6 h ([2]; 6 h post final dose, SCC tumours, read-out: Average Concentration Compound 1 in tumour) | concentration at 18 h ([2]; 18 h post final dose, SCC tumours, read-out: Average Concentration Compound 1 in tumour) | average tumour concentration of Compound 1 relative to that of tacrolimus ([2]; over 18 h) | T cell proliferation compared to the vehicle control ([1]; 0.6 ng/mL tacrolimus, anti-CD3, 5 days) | concentration at 1 h [2] | concentration at 6 h [2] | concentration at 18 h [2]
1 | CC[C@@H]1/C=C(\C)[C@@H](O)[C@H](C)C[C@H](OC)[C@H]2O[C@@](O)(C(=O)C(=O)N3CCCC[C@H]3C(=O)O[C@H](/C(C)=C/[C@@H]3CC[C@@H](O)[C@H](OC)C3)[C@H](C)[C@@H](O)CC1=O)[C@H](C)C[C@@H]2OC [Compound 1, 17-Ethyl-1,14,20-trihydroxy-12-[2′-(4″-hydroxy-3″-methoxycyclohexyl)-1′-methylvinyl]-23,25-dimethoxy-13,19,21,27-tetramethyl-11,28-dioxa-4-azatricyclo-[22.3.1.0^4,9]octacos-18-ene-2,3,10,16-tetraone] | significantly rescued | unable to rescue | dose dependently and significantly rescued | did not significantly alter | 165000 ng/g | 148000 ng/g | 168000 ng/g | more than 2000 fold | – | – | – | –
2 | C=CC[C@@H]1/C=C(\C)C[C@H](C)C[C@H](OC)[C@H]2O[C@@](O)(C(=O)C(=O)N3CCCC[C@H]3C(=O)O[C@H](/C(C)=C/[C@@H]3CC[C@@H](O)[C@H](OC)C3)[C@H](C)[C@@H](O)CC1=O)[C@H](C)C[C@@H]2OC [tacrolimus, reference compound] | – | – | – | – | – | – | – | – | inhibited | 33 ng/g | 73 ng/g | 52 ng/g
